According to PMC6265740, “Biochemical and Anti-Triple Negative Metastatic Breast Tumor Cell Properties of Psammaplins” (Marine Drugs, 2018):
Entries after “also recorded” stand apart in the source; their conditions may differ.

How the values were obtained:
VEGF protein = test: ELISA of cellular and secreted VEGF proteins in T47D cells; format: cell-based, human; details: normalized to cellular proteins
Excerpt: (§1) Around 100 genes have been identified as HIF-1 target genes that encode proteins involved in various aspects of cellular physiology. While most of these genes are regulated in a cell type-specific manner, some are induced upon HIF-1 activation in most cell types. Based on availability and potency, compound 4 (a stereoisomer of 2) was selected for follow-up studies. The effects of 4 on the expression of HIF-1 target genes cyclin dependent kinase inhibitor 1A (CDKN1A) and vascular endothelial growth factor A (VEGFA) were examined by quantitative real time RT-PCR (Figure 2). The HIF-1 activator 1,10-phen (10 μM) and the pan-HDAC inhibitor TSA (0.1 and 1 μM, respectively) were included as positive controls. In T47D cells, 4 and TSA each increased the levels of CDKN1A mRNA in a concentration-dependent manner (2.9-fold for 4 at 10 μM and 7.2-fold for TSA at 1 μM, Figure 2A). In contrast, neither 4 nor TSA exerted greater than 20% effect on the levels of VEGF mRNA (Figure 2B). The gene VEGF encodes vascular endothelial growth factor A (a potent angiogenic factor) and agents that inhibit VEGF are in clinical use for cancer. The expression of cellular and secreted VEGF proteins was examined in T47D cells by ELISA assay.
Figure 2 Effects of 4 and trichostatin A (TSA) on HIF-1 target gene expression. T47D cells were exposed to 4 and TSA at the specified concentrations for 16 h. The compound 1,10-phen (10 µM) was included as a positive control. The levels of cyclin dependent kinase inhibitor 1A (CDKN1A) (A) and vascular endothelial growth factor (VEGF) (B) mRNA following treatments were determined by quantitative real time RT-PCR. Relative levels of target gene mRNA normalized to an internal control (18S rRNA) are shown as average ± standard deviation (n = 3, one representative experiment). The levels of cellular (C) and secreted VEGF protein (D) were determined by ELISA and normalized to the amount of cellular proteins. Data shown are average + standard deviation (n = 3). An asterisk “*” indicates p < 0.05 when compared to the media control.
(§2) The effects of test samples on HIF-1 target gene expression were assessed in T47D cells. To determine the levels of CDKN1A and VEGF mRNA, quantitative real-time RT-PCR was performed as described. To determine the levels of cellular and secreted VEGF proteins, T47D cells were exposed to compounds as described, the levels of VEGF proteins in the conditioned medium and cell lysate samples determined by ELISA [21], the amount of proteins in the cell lysate samples quantified using a micro BCA assay kit (Thermo Fisher Scientific, Rockford, IL, USA), and the level of VEGF proteins normalized to that of cellular proteins.

VEGF mRNA = test: Quantitative real time RT-PCR of VEGF mRNA in T47D cells; format: cell-based, human; details: 16 h; for effect on the levels of VEGF mRNA: concentrations tested
Excerpt: as §1, with “The gene VEGF encodes vascular endothelial growth factor A (a potent angiogenic factor) and agents that inhibit VEGF are in clinical use for cancer. The expression of cellular and secreted VEGF proteins was examined in T47D cells by ELISA assay.” left out
(§3) Figure 2 Effects of 4 and trichostatin A (TSA) on HIF-1 target gene expression. […] The levels of cyclin dependent kinase inhibitor 1A (CDKN1A) (A) and vascular endothelial growth factor (VEGF) (B) mRNA following treatments were determined by quantitative real time RT-PCR. […] The levels of cellular (C) and secreted VEGF protein (D) were determined by ELISA and normalized to the amount of cellular proteins. […]
as §2

BoM spheroids = test: Cultrex 3D spheroid cell invasion assay; format: cell-based, human; details: for invasion of BoM spheroids into the extracellular matrix: 96 h (T96), 4 and TSA at 48 h proliferation IC50
Experimental: In order to form metastatic lesions, metastasis-initiating tumor cells must invade and intravasate into the lymphatic vasculature and/or blood vessels. Psammaplins were evaluated in a Cultrex® 3-D cell invasion assay that monitors the invasion and migration of tumor cells grown as spheroids, which closely model in vivo pathophysiological conditions.
Figure 5 Inhibition of bone metastatic BoM cell invasion. Tumor cell spheroids formed in a special spheroid formation extracellular matrix (ECM) were embedded in an invasion matrix containing 10% fetal bovine serum (FBS) in the presence and absence of compounds at the specified concentrations. Four days later (T96), cell invasion was recorded microscopically (the bar at the bottom right represents 100 µm).
The 3D spheroid cell invasion assay was performed using a commercial kit, following the manufacturer’s instructions (Cultrex® 3D Spheroid Cell Invasion Assay, Trevigen, Gaithersburg, MD, USA). Briefly, exponentially grown MDA-MB-231, LM, BoM, and BrM cells were trypsinized, collected, and resuspended in serum-free DMEM/F12 media. For spheroid formation, 3000 cells were added in a volume of 50 µL serum-free DMEM/F12 media with 1× spheroid formation solution/well into a pre-cooled 96-well plate. The plate was centrifuged at 100× g for 5 min at 4 °C, incubated at 37 °C for 24 h, and the spheroids imaged using an Axiovert 40 CFL microscope (Zeiss, Oberkochen, Germany). The plate was placed on ice, the invasion mix added in a volume of 50 µL/well, centrifuged at 350× g for 5 min at 4 °C, and incubated at 37 °C for 1 h. Test compounds and controls were diluted to two times the final concentrations in DMEM/F12 media supplemented with FBS (10%) and antibiotics, and added in a volume of 100 µL/well. The incubation continued for another 4 days at 37 °C and the cells/spheroids imaged (T96).

HIF-1 = test: T47D cell-based reporter assay (pHRE-luc) for HIF-1 activity; set-up: species or system human; details: for normalized ratio of pHRE-luc/pGL3-control: T47D
Experimental: Cellular adaptation to hypoxia (low oxygen tension) is primarily mediated via the transcription factor hypoxia-inducible factor-1 (HIF-1), that regulates oxygen homeostasis by activating the expression of genes that increase oxygen availability and those that decrease oxygen consumption. […] In a T47D cell-based reporter assay, a lipid extract sample of the sponge Dendrilla lacunosa activated HIF-1 by 3.56-fold (NIH collection No. C025691, 10 μg mL^−1). Bioassay-guided fractionation of the extract sample (2.6 g) and chemical structure elucidation afforded five known compounds psammaplin E (1), (E,Z)-psammaplin A (2), (E,E)-psammaplin K (3), (E,E)-psammaplin A (4), and bisaprasin (5). To determine the effects of 1–5 on HIF-1 activity, concentration-response studies were performed in a T47D cell-based reporter assay (Figure 1B). An iron chelator (1,10-phenanthroline, 10 μM) was included as a positive control. Compounds 1–4 activated HIF-1 in a biphasic manner. […] Hypoxia (1% O2) and chemical hypoxia (iron chelators or transition metals) represent two common stimuli that activate HIF-1 [24, 25, 26]. Further studies were performed to determine the effects of 1–5 on HIF-1 activity in the presence of other stimuli (1,10-phenanthroline, Figure 1C; hypoxia, Figure 1D). While 1–4 acted synergistically with 1,10-phenanthroline and hypoxia to activate HIF-1, a biphasic pattern of activation similar to that in the absence of stimulus […] was observed. […] Previous studies reported that psammaplins inhibit histone deacetylase (HDAC) enzymes. To determine if HDAC inhibition non-specifically activates HIF-1, concentration-response studies were conducted in T47D cells transfected with the pGL3-control plasmid. […] One possible scenario is that these compounds incur significant amount of cellular stress at higher concentrations, leading to the inhibition of gene expression in general.
Figure 1 Concentration-dependent biphasic effects of 1–4 on HIF-1 activation. (A) Structures of psammaplins isolated from Dendrilla lacunosa. (B) Concentration-response results of 1–5 in T47D cells transfected with pHRE-luc for HIF-1 activity. Test compounds were added at the increasing concentrations of 0.1, 0.3, 1, 3, 10, and 30 µM, as specified. The positive control 1,10-phenanthroline (1,10-phen) was used at 10 µM. Data shown are average ± standard deviation (n = 3). (C) Similar to described in (B) except that the pHRE-luc transfected T47D cells were exposed to test compounds in the presence of 10 µM 1,10-phen, and the data were normalized to the positive control (1,10-phen). (D) Similar to described in (C) except that hypoxic exposure (1% O2: 5% CO2: 94% N2, 16 h) was applied in place of 1,10-phen. (E) As described in (B) except that T47D cells were transfected with the pGL3-control construct. An asterisk “*” indicates p < 0.05 when compared to the controls (“Media” for B, D, and E; and “1,10-phen” for C).
To monitor HIF-1 activity, T47D cells were transfected with the pHRE3-TK-Luc construct and the cell-based luciferase reporter assay was performed as described. Cells were exposed to test compounds in the absence and presence of 1,10-phenanthroline (10 μM) or hypoxic conditions (1% O2: 5% CO2: 94% N2) for 16 h. The cells were lysed and luciferase activity determined with a commercial kit (Promega, Madison, WI, USA). For the cell-based control reporter assay, T47D cells were transfected with the pGL3-control construct (Promega, Madison, WI, USA), exposed to test compounds for 16 h, and the luciferase reporter assay performed as described.

HDAC = test: MDA-MB-435 cell-based HDAC assay (HDAC-Glo); details: MDA-MB-435 cells, 30 min incubation, n = 6 pooled from two experiments
Experimental: Test compounds were added at specified concentrations to exponentially grown cells plated in 96-well plates. After 30 min incubation, the HDAC activity was determined using a commercial kit (HDAC-Glo™, Promega, Madison, WI, USA) and normalized to that of the dimethyl sulfoxide (DMSO) solvent control.
Exponentially grown cells were seeded at the density of 5000 cells/well into 96-well plates (Corning, Corning, NY, USA) and incubated overnight. Compounds dissolved in DMSO were added to achieve the specified final concentrations (total volume: 100 μL, DMSO: 0.5%). The incubation continued for 30 min at 37 °C and the HDAC activity determined using a commercial luminescent assay (HDAC-Glo™, Promega, Madison, WI, USA).

CDKN1A mRNA = test: Quantitative real time RT-PCR of CDKN1A mRNA in T47D cells; format: cell-based, human; details: 16 h
Excerpt: Around 100 genes have been identified as HIF-1 target genes that encode proteins involved in various aspects of cellular physiology. While most of these genes are regulated in a cell type-specific manner, some are induced upon HIF-1 activation in most cell types. Based on availability and potency, compound 4 (a stereoisomer of 2) was selected for follow-up studies. The effects of 4 on the expression of HIF-1 target genes cyclin dependent kinase inhibitor 1A (CDKN1A) and vascular endothelial growth factor A (VEGFA) were examined by quantitative real time RT-PCR (Figure 2). The HIF-1 activator 1,10-phen (10 μM) and the pan-HDAC inhibitor TSA (0.1 and 1 μM, respectively) were included as positive controls. […]
as §3
The effects of test samples on HIF-1 target gene expression were assessed in T47D cells. To determine the levels of CDKN1A and VEGF mRNA, quantitative real-time RT-PCR was performed as described. […]

[1] = T47D pHRE-luc, 10 μM, 16 h, no stimulus, n = 3
[2] = T47D pHRE-luc, 3 μM, 16 h, no stimulus, n = 3

In the case of `c1cnc2c(c1)ccc1cccnc12` [1,10-phen, 1,10-phenanthroline], the “VEGF expression, cellular protein” value (VEGF protein) is reported as “induced VEGF expression”, the “VEGF expression, secreted protein” value (VEGF protein) is reported as “induced VEGF expression” and the “VEGF expression, mRNA” value (VEGF mRNA; 10 μM) is reported as “induced VEGF expression”.

For `C[C@@H]1C[C@@H]([C@H](O)CC2CC(=O)NC(=O)C2)C(=O)[C@@H](C)C1` [CHX, cycloheximide], the “size of the spheroids” value (BoM spheroids; 96 h, in comparison to the HDAC inhibitors) was “more pronounced decrease in the size of the spheroids”.

For `NC(=O)C(=O)NCCSSCCNC(=O)/C(Cc1ccc(O)c(Br)c1)=N/O` [Compound 1, psammaplin E], the “HIF-1 activation (highest level)” value (HIF-1; [1]) was 12.01 ± 1.12 fold, the “normalized ratio of pHRE-luc/pGL3-control” value (HIF-1; 10 μM) was 2.64 fold and the IC50 (HDAC) was 0.257 µM.

With `O=C(NCCSSCCNC(=O)C(Cc1ccc(O)c(Br)c1)=NO)C(Cc1ccc(O)c(Br)c1)=NO` [Compound 2, (E,Z)-psammaplin A] the “HIF-1 activation (highest level)” value (HIF-1; [2]) was 12.32 ± 0.70 fold, the “normalized ratio of pHRE-luc/pGL3-control” value (HIF-1; 3 μM) was 2.38 fold and the IC50 (HDAC) was 0.019 µM.

With `O=C(NCCSSCCNC(=O)/C(Cc1cc(O)c(O)c(Br)c1)=N/O)/C(Cc1ccc(O)c(Br)c1)=N/O` [Compound 3, (E,E)-psammaplin K] the “HIF-1 activation (highest level)” value (HIF-1; [1]) was 10.15 ± 0.66 fold, the “normalized ratio of pHRE-luc/pGL3-control” value (HIF-1; 10 μM) was 2.38 fold and the IC50 (HDAC) was 0.038 µM.

With `O=C(NCCSSCCNC(=O)/C(Cc1ccc(O)c(Br)c1)=N/O)/C(Cc1ccc(O)c(Br)c1)=N/O` [Compound 4, (E,E)-psammaplin A] the “increase in CDKN1A mRNA level” value (CDKN1A mRNA; 10 μM) was 2.9 fold, the “VEGF expression, cellular protein” value (VEGF protein) was “None of the HDAC inhibitors examined (4 and TSA) increased VEGF protein levels” and the “VEGF expression, secreted protein” value (VEGF protein) was “None of the HDAC inhibitors examined (4 and TSA) increased VEGF protein levels”. For the same molecule, the “HIF-1 activation (highest level)” value (HIF-1; [2]) was 11.01 ± 0.71 fold, the “normalized ratio of pHRE-luc/pGL3-control” value (HIF-1; 3 μM) was 2.30 fold and the “effect on the levels of VEGF mRNA” value (VEGF mRNA) was ≤ 20%. For the same molecule, the “invasion of BoM spheroids into the extracellular matrix” value (BoM spheroids) was “inhibited the invasion of BoM spheroids; also recorded: inhibited this invasion” and the IC50 (HDAC) was 0.037 µM.

With `O=C(NCCSSCCNC(=O)/C(Cc1cc(Br)c(O)c(-c2cc(C/C(=N\O)C(=O)NCCSSCCNC(=O)/C(Cc3ccc(O)c(Br)c3)=N/O)cc(Br)c2O)c1)=N/O)/C(Cc1ccc(O)c(Br)c1)=N/O` [Compound 5, bisaprasin] the HIF-1 activation (HIF-1; T47D pHRE-luc, 30 μM, 16 h, no stimulus, n = 3) was 2.17 ± 0.13 fold, the “effect on HIF-1 activity in the presence of other stimuli” value (HIF-1; T47D pHRE-luc, with 1,10-phenanthroline (10 µM) or hypoxia (1% O2), 16 h) was “inhibited HIF-1 activation at higher concentrations” and the IC50 (HDAC) was 0.948 µM.

With `CC(/C=C/C(=O)NO)=C\[C@@H](C)C(=O)c1ccc(N(C)C)cc1` [TSA, trichostatin A] the “increase in CDKN1A mRNA level” value (CDKN1A mRNA; 1 μM) was 7.2 fold, the “VEGF expression, cellular protein” value (VEGF protein) was “None of the HDAC inhibitors examined (4 and TSA) increased VEGF protein levels” and the “VEGF expression, secreted protein” value (VEGF protein) was “None of the HDAC inhibitors examined (4 and TSA) increased VEGF protein levels”. The “effect on the levels of VEGF mRNA” value (VEGF mRNA) was ≤ 20% and the “invasion of BoM spheroids into the extracellular matrix” value (BoM spheroids) was “inhibited the invasion of BoM spheroids”.
